Laboratory results taken from article PMC9698773, “Design, Synthesis, Molecular Modeling, and Anticancer Evaluation of New VEGFR-2 Inhibitors Based on the Indolin-2-One Scaffold” (Pharmaceuticals, 2022).
Where “and” joins values, the source holds several entries; their conditions need not be identical. Equal values may be shown once.

Test system: Bcl-2
Test: Bcl-2 expression assay (Western blot)
Type: cell-based, human
Conditions: HepG2, 1.13 µM, 24 h
Protocol: The expression of BAX and Bcl-2 were evaluated in the HepG2 cells after treatment with 1.13 µM of compound 17a for 24 h. The Western blotting technique was utilized to determine the levels of Bax and Bcl-2 proteins and estimate the Bax/Bcl-2 ratio.
The expression of apoptotic BAX and antiapoptotic Bcl-2 proteins in the liver HepG2 cells treated with 1.13 μM of 17a was determined using Western blot analysis, as described in the Supplementary Materials. […]
Casp3 F: 5ʹ‐ […] ‐3ʹ
Casp3 R: 5ʹ‐ […] ‐3ʹ […]
β‐actin F: 5ʹ‐[…]‐3ʹ […]
β‐actin R: 5ʹ‐[…]‐3ʹ […]
4.2.6. Bax and Bcl‐2 expression assay
The expression of BAX and Bcl‐2 proteins were determined using Western blot anal‐ ysis. In brief, HepG2 cells were treated with control or with the synthesized compound 17a (1.13 μM). […] Total protein concentrations in the supernatant were colorimetrically determined using the Pierce 660 nm Protein Assay method (Thermo Fisher Scientific, Rockford, IL), with BSA as the stand‐ ard. […] Means of the detected blot intensities were then quantified, analyzed by the combined Bio‐Rad Image Lab soft‐ ware and their corresponding background subtracted, with normalization to the corre‐ sponding bands density of β‐actin as the sampling loading control. […]

In the case of `O=C1Nc2ccccc2C1=Nc1ccc(C(=O)NNC(=S)Nc2ccccc2)cc1` [Compound 17a, 2-(4-((2-Oxoindolin-3-ylidene)amino)benzoyl)-N-phenylhydrazinecarbothioamide], the “decrease of Bcl-2 expression versus control” value was 1.88 fold and 1.9 fold and the “Protein Expression (Normalized to β-Actin) Bcl-2” value (control 0.432) was 0.229.
